Consider 21 compounds from US9790233B2, “Compositions and methods of modulating 15-PGDH activity” (CASE WESTERN RESERVE UNIVERSITY, priority 2012, dated 2017).

Where two headings read alike, the source gives them in different places.

Common to all, as to format: cell-based
The subject of assay [1] is 15-PGDH luciferase fusion construct in LS174T reporter cell line. Kind of assay: 15-PGDH-luciferase fusion gene reporter induction, LS174T cells. The conditions noted are these: Homo sapiens.
The subject of assay [2] is 15-PGDH luciferase fusion construct in Vaco503 reporter cell line. Kind of assay: 15-PGDH-luciferase fusion gene reporter induction, V503 cells.
The subject of assay [3] is 15-PGDH luciferase fusion construct in V9m reporter cell line. As to the kind of experiment: 15-PGDH-luciferase fusion gene reporter induction, V9m cells.
Setting [4] is: read-out: LS174T reporter activity ([…]), […], % induction over basal level, Table 17, read-out: LS174T reporter activity (2.5 μM).
The mark [5] stands for this setting: read-out: lS174T reporter activity ([…]), […], % induction over basal level, Table 17, read-out: lS174T reporter activity (7.5 μM).
Where [6] appears, read: read-out: V503 reporter activity ([…]), […], % induction over basal level, Table 17, read-out: V503 reporter activity (2.5 μM).
Where [7] appears, read: read-out: V503 reporter activity ([…]), […], % induction over basal level, Table 17, read-out: V503 reporter activity (7.5 μM).
Setting [8] is: read-out: V9M reporter activity ([…]), […], % induction of luciferase activity over basal level, Table 17, read-out: V9M reporter activity (2.5 μM).
[9] abbreviates: read-out: V9M reporter activity ([…]), […], % induction over basal level, Table 17, read-out: V9M reporter activity (7.5 μM).
The mark [10] stands for this setting: read-out: Ls174T-SC1 reporter activity, % ([…]), LS174T reporter cells, […] compound, % induction of luciferase activity over basal level, read-out: Ls174T-SC1 reporter activity, % (2.5 μM).
Setting [11] is: read-out: Ls174T-SC1 reporter activity, % ([…]), LS174T reporter cells, […] compound, % induction of luciferase activity over basal level, read-out: Ls174T-SC1 reporter activity, % (7.5 μM).
Where [12] appears, read: read-out: V503-3H9-7 reporter activity, % ([…]), V503 reporter cells, […] compound, % induction of luciferase activity over basal level, read-out: V503-3H9-7 reporter activity, % (2.5 μM).
[13] abbreviates: read-out: V503-3H9-7 reporter activity, % ([…]), V503 reporter cells, […] compound, % induction of luciferase activity over basal level, read-out: V503-3H9-7 reporter activity, % (7.5 μM).
The mark [14] stands for this setting: read-out: V9M-SC3 Reporter activity ([…]) (%), V9m reporter cells, […] compound, % induction of luciferase activity over basal level, read-out: V9M-SC3 Reporter activity (2.5 μM) (%).
Where [15] appears, read: read-out: V9M-SC3 Reporter activity ([…]), %, V9m reporter cells, […] compound, % induction of luciferase activity over basal level, read-out: V9M-SC3 Reporter activity (7.5 μM), %.
[16] abbreviates: read-out: Ls174T-SC1 reporter activity, % ([…]), […], Table 18, read-out: Ls174T-SC1 reporter activity, % (2.5 μM).
[17] abbreviates: read-out: Ls174T-SC1 reporter activity, % ([…]), […], Table 18, read-out: Ls174T-SC1 reporter activity, % (7.5 μM).
Where [18] appears, read: read-out: V503-3H9-7 reporter activity, % ([…]), […], Table 18, read-out: V503-3H9-7 reporter activity, % (2.5 μM).
[19] abbreviates: read-out: V503-3H9-7 reporter activity, % ([…]), […], Table 18, read-out: V503-3H9-7 reporter activity, % (7.5 μM).
Where [20] appears, read: read-out: V9M-SC3 Reporter activity ([…]) (%), […], Table 18, read-out: V9M-SC3 Reporter activity (2.5 μM) (%).
[21] abbreviates: read-out: LS174T reporter activity ([…]), […], % increased luciferase activity over basal level, read-out: LS174T reporter activity (2.5 uM).
[22] abbreviates: read-out: LS174T reporter activity ([…]), […], % increased luciferase activity over basal level, read-out: LS174T reporter activity (7.5 uM).
[23] abbreviates: read-out: V503 reporter activity ([…]), […], % increased luciferase activity over basal level, read-out: V503 reporter activity (2.5 uM).
[24] abbreviates: read-out: V503 reporter activity ([…]), […], % increased luciferase activity over basal level, read-out: V503 reporter activity (7.5 uM).
Where [25] appears, read: read-out: V9M reporter activity ([…]), […], % increased luciferase activity over basal level, 100 = doubling, read-out: V9M reporter activity (2.5 uM).
The mark [26] stands for this setting: read-out: V9M reporter activity ([…]), […], % increased luciferase activity over basal level, 100 = doubling, read-out: V9M reporter activity (7.5 uM).
Setting [27] is: V9m reporter cells, […] compound, % induction of luciferase activity over basal level.

In the case of `CCOc1ccccc1N(CC(=O)Nc1ccccc1Br)S(=O)(=O)c1ccc(C)cc1` [compound 771074], the activation at […] is 20.7% in assay [1] (setting [4]); 20.6% in assay [1] (setting [5]); 23% in assay [2] (setting [6]); 39.5% in assay [2] (setting [7]); 13.5% in assay [3] (setting [8]); 24.7% in assay [3] (setting [9]).

For `COc1ccc(OC)c(N(CC(=O)Nc2cnccn2)S(=O)(=O)c2ccccc2)c1` [SW203681], the activation at […] was 121% in assay [1] (setting [10]); 152% in assay [1] (setting [11]); 90.4% in assay [2] (setting [12]); 72.4% in assay [2] (setting [13]); 18% in assay [3] (setting [14]); 122% in assay [3] (setting [15]).

Consider `COc1ccc(OC)c(N(CC(=O)O)S(=O)(=O)c2ccccc2)c1` [SW122063], for which the activation at […] in assay [1] (setting [10]) is 22.6%; in assay [1] (setting [11]), 19.9%; in assay [2] (setting [12]), 42.5%; in assay [2] (setting [13]), 44.1%; in assay [3] (setting [14]), 1.67%; in assay [3] (setting [15]), 4.8%.

With `COc1ccc(OC)c(N(CC(=O)Nc2ccc(Cl)nc2)S(=O)(=O)c2ccccc2)c1` [SW202970], the activation at […] in assay [1] (setting [10]) amounted to 47.9%; in assay [1] (setting [11]) it was 55.9%; in assay [2] (setting [12]) it was 179%; in assay [2] (setting [13]), 122%; in assay [3] (setting [14]), 32.7%; in assay [3] (setting [15]), 17.8%.

Consider `COc1ccc(OC)c(N(CC(=O)OC(C)C)S(=O)(=O)c2ccccc2)c1` [SW202971], for which the activation at […] was -7.91% in assay [1] (setting [10]); 34.5% in assay [1] (setting [11]); 85.5% in assay [2] (setting [12]); 169% in assay [2] (setting [13]); -14.5% in assay [3] (setting [14]); 9.67% in assay [3] (setting [15]).

Consider `COc1ccc(OC)c(N(CC(=O)Nc2ccc(Cl)c(Cl)c2)S(=O)(=O)c2ccccc2)c1` [339589-55-8], for which the activation at […] in assay [1] (setting [16]) is -5.54%; in assay [1] (setting [17]), 8.81%; in assay [2] (setting [18]) it was 64%; in assay [2] (setting [19]), 52.5%; in assay [3] (setting [20]), -7%.

For the compound `CCCCS(=O)(=O)c1sc2nc(-c3cccs3)cc(-c3ccccc3)c2c1N` [SW208078, 2-(butylsulfonyl)-4-phenyl-6-(thiophen-2-yl)thieno[2,3-b]pyridin-3-amine], the activation at […] in assay [1] (setting [21]) worked out at 72.7%; in assay [1] (setting [22]) it was 40%; in assay [2] (setting [23]), 87.7%; in assay [2] (setting [24]), 83.8%; in assay [3] (setting [25]), 36.2%; in assay [3] (setting [26]), 34.9%.

Turning to `CCOc1ccc(N(CC(=O)Nc2cccnc2)S(=O)(=O)c2ccccc2)cc1` [428473−22−7], the activation at […] is -15.5% in assay [1] (setting [16]); 10.6% in assay [1] (setting [17]); 19.1% in assay [2] (setting [18]); 19.8% in assay [2] (setting [19]); -17.9% in assay [3] (setting [20]).

`COC(=O)c1ccccc1NC(=O)CN(c1cc(OC)ccc1OC)S(=O)(=O)c1ccccc1` [333449-58-4]: the activation at […] was -5.9% in assay [1] (setting [16]); -3.99% in assay [1] (setting [17]); 50.1% in assay [2] (setting [18]); 20.7% in assay [2] (setting [19]); 6.5% in assay [3] (setting [20]).

As to `COc1ccccc1N(CC(=O)Nc1cccnc1)S(=O)(=O)c1ccccc1` [367929−80−4], the activation at […] was 18.8% in assay [1] (setting [16]); -18% in assay [1] (setting [17]); -0.87% in assay [2] (setting [18]); -6.22% in assay [2] (setting [19]); -27.8% in assay [3] (setting [20]).

Take `COc1ccc(OC)c(N(CC(=O)Nc2ccccc2Br)S(=O)(=O)c2ccc(OC)c(OC)c2)c1` [compound 924740]: the activation at […] in assay [1] (setting [4]) is 7.69%; in assay [1] (setting [5]), 16.7%; in assay [2] (setting [6]), 20.2%; in assay [2] (setting [7]) it was 52.2%; in assay [3] (setting [8]), -0.54%; in assay [3] (setting [9]) it was 6.33%.

Consider `COc1ccc(OC)c(N(CC(=O)Nc2cccnc2)S(=O)(=O)c2ccccc2OC(F)(F)F)c1` [SW202954], for which the activation at […] in assay [1] (setting [10]) was -4.59%; in assay [1] (setting [11]), -6.99%; in assay [2] (setting [12]), -8.94%; in assay [2] (setting [13]), 2.39%; in assay [3] (setting [14]), 2.7%; in assay [3] (setting [15]) it was 4.8%.

Regarding `COc1ccc(NC(=O)CN(c2ccccc2)S(=O)(=O)c2ccccc2)cc1` [compound 474759], the activation at […] in assay [1] (setting [4]) is 5.54%; in assay [1] (setting [5]), -0.03%; in assay [2] (setting [6]), -5.04%; in assay [2] (setting [7]), -12.7%; in assay [3] (setting [8]) it was 2.58%; in assay [3] (setting [9]) it was 6.4%.

`COc1ccc(N(CC(=O)Nc2ccc(CC#N)cc2)S(=O)(=O)c2ccccc2)cc1Cl` [compound 919576]: the activation at […] in assay [1] (setting [4]) worked out at 17.5%; in assay [1] (setting [5]), 30.7%; in assay [2] (setting [6]) it was 49.2%; in assay [2] (setting [7]), 73.7%; in assay [3] (setting [8]) it was 49.9%; in assay [3] (setting [9]), 63%.

With `COc1ccc(OC)c(N(CC(N)=O)S(=O)(=O)c2ccccc2)c1` [SW131635], the activation at […] in assay [1] (setting [10]) was 111%; in assay [1] (setting [11]), 14.1%; in assay [2] (setting [12]) it was -37.7%; in assay [2] (setting [13]) it was 14.4%; in assay [3] (setting [14]) it was 11.4%; in assay [3] (setting [15]), 15.1%.

For `COc1ccc(OC)c(N(CC(=O)Nc2ccccc2C)S(=O)(=O)c2ccccc2)c1` [SW202975], the activation at […] in assay [1] (setting [10]) was -7.32%; in assay [1] (setting [11]) it was 17.2%; in assay [2] (setting [12]), 47.4%; in assay [2] (setting [13]) it was 116%; in assay [3] (setting [14]) it was -26.6%; in assay [3] (setting [15]), -8.97%.

As to `COc1ccc(OC)c(N(CC(=O)N2CCc3ccccc32)S(=O)(=O)c2ccccc2)c1` [SW208003], the activation at […] in assay [1] (setting [10]) is 37%; in assay [1] (setting [11]), 45.6%; in assay [2] (setting [12]) it was 117%; in assay [2] (setting [13]), 75.9%; in assay [3] (setting [14]), 13.3%; in assay [3] (setting [15]) it was -11.5%.

`COc1ccc(OC)c(N(CC(=O)Nc2cncc(C)c2)S(=O)(=O)c2ccccc2)c1` [SW202974]: the activation at […] in assay [1] (setting [10]) is -8.77%; in assay [1] (setting [11]), 34.8%; in assay [2] (setting [12]) it was 59.9%; in assay [2] (setting [13]), 179%; in assay [3] (setting [14]) it was -9.04%; in assay [3] (setting [15]), 35.9%.

`CCCC[S+]([O-])c1sc2ncccc2c1N` (centres unmarked) [SW208064, 2-(butylsulfinyl)thieno[2,3-b]pyridin-3-amine]: the activation at […] in assay [1] (setting [21]) was determined as 126%; in assay [1] (setting [22]), 96.2%; in assay [2] (setting [23]), 126%; in assay [2] (setting [24]), 96.2%; in assay [3] (setting [25]), 82.6%; in assay [3] (setting [26]), 50.1%.

For the compound `COc1ccc(OC)c(N(CC(=O)Nc2cncc(Cl)c2)S(=O)(=O)c2ccccc2)c1` [SW202990], in assay [3] (setting [27]), the “V9M-SC3 Reporter activity ([…]) (%)” value worked out at 3.57% and the “V9M-SC3 Reporter activity ([…]), %” value was found to be 23.49%.

Turning to `Nc1c(C(=O)Cc2ccccc2)sc2nc(-c3cccs3)cc(-c3ccccc3)c12` [SW033292], the activation at […] in assay [3] (setting [25]) worked out at 1.51%.
